Measured values as given in US11365202B2, “Antimalarial compounds, process for preparation and their use for drug resistant malaria” (Council of Scientific and Industrial Research, priority 2018, dated 2022).
pEC50, pIC50: −log10 of the molar value.

How the values were obtained:
falcipain-2 = falcipain-2 (Plasmodium falciparum (isolate 3D7), UniProt Q8I6U4); test: Fluorometric assay for falcipain-2 activity; assay type: biochemical
Procedure: Recombinant falcipain-2 was prepared according to the method described by Shenai et al. (J Biol Chem.; 2000, 275(37): 29000-10) and Kumar et al. (Biochem Biophys. Res Commun. 2004, 317(1), 38-45) with slight modification. Briefly, Escherichia coli M15 containing pQE30-FP-2 plasmid were grown to mid-log phase and induced with isopropyl-1-thio-b-D-galactopyranoside (IPTG, 0.5 mM) for 5 h at 37° C. Cells were harvested, washed with ice-cold 100 mM Tris-Cl, 10 mM EDTA, pH 7.4, sonicated (12 cycles of 10 s each, with cooling for 10 s between the cycles), and centrifuged at 15,000 rpm for 45 min at 4° C. The pellet was washed twice with 2.5 M urea, 20 mM Tris-Cl2.5% Triton X-100, pH 8.0; centrifuged at 15,000 rpm for 45 min at 4° C.; and solubilized in 6 M guanidine HCl, 20 mM Tris-Cl, 250 mM NaCl, 20 mM imidazole, pH 8.0 (5 ml/g of inclusion body pellet) at RT for 60 min with gentle stirring. Insoluble material was separated by centrifuging at 15,000 rpm for 60 min at 4° C. For the purification of the recombinant protein, the supernatant was incubated overnight at 4° C. with a nickel-nitrilotriacetic acid (Ni-NTA) resin. The resin was loaded on a column and washed with 10 bed volumes each of 6 M guanidine HCl, 20 mM Tris-Cl, 250 mM NaCl, pH 8.0; 8 M urea, 20 mM Tris-Cl, 500 mM NaCl, pH 8.0; and 8 M urea, 20 mM Tris-Cl, 30 mM imidazole, pH 8.0. Bound protein was eluted with 8 M urea, 20 mM Tris-Cl, 1 M imidazole, pH 8.0 and quantified by the Biocinchoninic acid assay. For the refolding, the fractions containing falcipain-2 protein were pooled in ice-cold refolding buffer: 100 mM diluted in Tris-Cl, 1 mM EDTA, 20% glycerol, 250 mM L-arginine, 1 mM GSH, 1 mM GSSG, pH 8.0 was added in a 100 fold dilution. The mixture was incubated with moderate stirring at 4° C. for 24 h, and concentrated to 25 ml using a stirred cell with a 10-kDa cut-off membrane (Pellicon XL device, Millipore) at 4° C. […] The purified and concentrated protein was quantified using Biocinchoninic acid assay. • b) Fluorometric Assay for Falcipain-2 activity:
For screening of falcipain-2 inhibitors, a 96-well plate fluorometric assay was developed following a protocol described by Kumar et al. (Biochem Biophys Res Commun.; 2004, 317(1), 38-45) Briefly, reaction was set up in a 200 ml reaction mixture containing 100 mM NaOAc, 10 mM DTT, 6 mg enzyme and different concentrations of inhibitors, pH 5.5. 10 mM of fluorogenic substrate benzyloxycarbonyl-Phe-Arg-7-amino-4-methylcoumarin hydrochloride (ZFR-AMC) was added, and the release of 7-amino-4-methylcoumarin (AMC) was monitored (excitation 355 nm; emission 460 nm) over 30 min at RT in Perkin Elmer Victor3 multi-label counter. […] The IC50 values were calculated from curve fittings by software Workout V 2.5.

P. falciparum 3D7 = test: P. falciparum growth inhibition assay, 3D7 strain; assay type: cell-based; conditions: Plasmodium falciparum, 3D7, 48 h, read-out: EC50 on P. falciparum 3D7
Procedure: P. falciparum strain 3D7, Dd2 and 7G8 were cultured in RPMI media (Invitrogen) supplemented with 0.5% albumax and 4% haematocrit using a protocol described previously [Trager and Jensen (Science,1976; 193:673-675)]. Cultures were synchronized by repeated sorbitol treatment following Lambros and Vanderberg (J Parasitol; 1979; 65:418-420). Each growth inhibition assay was performed in triplicate and the experiment was repeated twice. Each well contained 0.5 ml of complete media [RPMI (invitrogen) with 0.5% albumax], 4% haematocrit and the parasitaemia adjusted to ˜1%; the compound added to the parasite cultures to desired final concentrations (0-100 µM) and same amount of solvent (DMSO) was added to the control wells. The cultures were allowed to grow further for 48 h. Parasite growth was assessed by DNA fluorescent dye-binding assay using SYBR green (Sigma) following Smilkstein et al (Antimicrob Agents Chemother.; 2004, 48, 1803-1806). • f) In Vitro Toxicity Assay on CHO Cells

A549 human cells = test: In vitro toxicity on mammalian cell culture; assay type: cell-based
P. berghei = test: In vivo parasiticidal assay with P. berghei mice malaria model
Procedure: Five groups of female BALB/c mice, 6-8 weeks of age (four mice/group) were used for testing the in vivo parsiticidal and protective efficacy of different drug treatments. Mice were injected IP with 1×10^6 P. berghei infected erythrocytes. The drug treatment was initiated 5 days after inducing parasitemia; mice in a group were given 4 doses of a compound at 12.5 mg/Kg of body weight. Control mice were given solvent alone. The parasitemia was assessed everyday in thin smears of Giemsa stained RBCs from tail blood of each mouse, by counting parasitized erythrocytes in more than 10,000 erythrocytes. Time of death of the mice in each group was also monitored.

[1] = 4 doses of 12.5 mg/Kg of body weight, infected BALB/c mice

Sequence of falcipain-2 (Q8I6U4 244-484 limits assumed): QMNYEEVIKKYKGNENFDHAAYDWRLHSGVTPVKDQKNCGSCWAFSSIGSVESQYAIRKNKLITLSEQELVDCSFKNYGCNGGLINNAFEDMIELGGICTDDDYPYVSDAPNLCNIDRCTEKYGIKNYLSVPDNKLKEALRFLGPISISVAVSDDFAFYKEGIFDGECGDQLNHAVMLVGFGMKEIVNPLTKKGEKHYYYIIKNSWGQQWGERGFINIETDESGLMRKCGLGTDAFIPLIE

Compound	activity against falcipain-2 enzyme (in words) (falcipain-2)	pEC50 (P. falciparum 3D7)	further results
CCOP(=O)(/C=C/C(NC(=O)[C@H](Cc1ccccc1)NC(=O)[C@@H]1C[C@@H](O[C@H]2O[C@@H]3OC4(C)CC[C@H]5[C@H](C)CC[C@@H]([C@H]2C)[C@@]35OO4)CN1C(=O)OCc1ccccc1)c1ccccc1)OCC (stereo in doubt) [Compound 6, Benzyl (2S,4R)-2-(((2S)-1-(((E)-3-(diethoxyphosphoryl)-1-phenylallyl)amino)-1-oxo-3-phenylpropan-2-yl)carbamoyl)-4-(((3R,5aS,6R,8aS,9R,10S,12R,12aR)-3,6,9-trimethyldecahydro-12H-3,12-epoxy[1,2]dioxepino[4,3-i]isochromen-10-yl)oxy)pyrrolidine-1-carboxylate]	inactive	–	–
CCOP(=O)(/C=C/[C@@H](NC(=O)[C@H](Cc1ccccc1)NC(=O)[C@H](CO[C@H]1O[C@@H]2O[C@@]3(C)CC[C@H]4[C@H](C)CC[C@@H]([C@H]1C)[C@@]24OO3)NC(=O)OCc1ccccc1)c1ccccc1)OCC [Compound 2a, Benzyl ((S)-1-(((S)-1-(((R,E)-3-(diethoxyphosphoryl)-1-phenylallyl)amino)-1-oxo-3-phenylpropan-2-yl)amino)-1-oxo-3-(((3R,5aS,6R,8aS,9R,10S,12R,12aR)-3,6,9-trimethyldeca hydro-12H-3,12-epoxy[1,2]dioxepino[4,3-i]isochromen-10-yl)oxy)propan-2-yl)carbamate]	–	9.02	–
CCOP(=O)(/C=C/[C@@H](NC(=O)[C@H](CC(C)C)NC(=O)[C@H](CO[C@H]1O[C@@H]2OC3(C)CC[C@H]4[C@H](C)CC[C@@H]([C@H]1C)[C@@]24OO3)NC(=O)OCc1ccccc1)c1ccccc1)OCC (stereo in doubt) [Compound 3a, Benzyl ((S)-1-(((S)-1-(((R,E)-3-(diethoxyphosphoryl)-1-phenylallyl)amino)-4-methyl-1-oxopentan-2-yl)amino)-1-oxo-3-(((3R,5aS,6R,8aS,9R,10S,12R,12aR)-3,6,9-trimethyldeca hydro-12H-3,12-epoxy[1,2]dioxepino[4,3-i]isochromen-10-yl)oxy)propan-2-yl)carbamate]	–	7.96	–
CCOP(=O)(/C=C/C(NC(=O)[C@@H]1C[C@@H](O[C@H]2O[C@@H]3OC4(C)CC[C@H]5[C@H](C)CC[C@@H]([C@H]2C)[C@@]35OO4)CN1C(=O)OCc1ccccc1)c1ccccc1)OCC (stereo in doubt) [Compound 4, Benzyl (2S,4R)-2-(((E)-3-(diethoxyphosphoryl)-1-phenylallyl)carbamoyl)-4-(((3R,5aS, 6R,8aS,9R,10S,12R,12aR)-3,6,9-trimethyldecahydro-12H-3,12-epoxy[1,2]dioxepino[4,3-i]isochromen-10-yl)oxy)pyrrolidine-1-carboxylate]	inactive	–	–
CCOP(=O)(/C=C/[C@H](NC(=O)[C@H](Cc1ccccc1)NC(=O)[C@H](CO[C@H]1O[C@@H]2O[C@@]3(C)CC[C@H]4[C@H](C)CC[C@@H]([C@H]1C)[C@@]24OO3)NC(=O)OCc1ccccc1)c1ccccc1)OCC [Compound 2b, Benzyl ((S)-1-(((S)-1-(((S,E)-3-(diethoxyphosphoryl)-1-phenylallyl)amino)-1-oxo-3-phenylpropan-2-yl)amino)-1-oxo-3-(((3R,5aS,6R,8aS,9R,10S,12R,12aR)-3,6,9-trimethyldeca hydro-12H-3,12-epoxy[1,2]dioxepino[4,3-i]isochromen-10-yl)oxy)propan-2-yl)carbamate]	–	8.69	–
CCOP(=O)(/C=C/[C@H](NC(=O)[C@H](CC(C)C)NC(=O)[C@@H]1C[C@@H](O[C@H]2O[C@@H]3OC4(C)CC[C@H]5[C@H](C)CC[C@@H]([C@H]2C)[C@@]35OO4)CN1C(=O)OCc1ccccc1)c1ccccc1)OCC (stereo in doubt) [Compound 5b, Benzyl (2S,4R)-2-(((S)-1-(((S,E)-3-(diethoxyphosphoryl)-1-phenylallyl)amino)-4-methyl-1-oxopentan-2-yl)carbamoyl)-4-(((3R,5aS,6R,8aS,9R,10S,12R,12aR)-3,6,9-trimethyldeca hydro-12H-3,12-epoxy[1,2]dioxepino[4,3-i]isochromen-10-yl)oxy)pyrrolidine-1-carboxylate]	–	8.21	–
CCOP(=O)(/C=C/C(NC(=O)[C@H](Cc1ccccc1)NC(=O)[C@H](CO[C@H]1O[C@@H]2O[C@@]3(C)CC[C@H]4[C@H](C)CC[C@@H]([C@H]1C)[C@@]24OO3)NC(=O)OCc1ccccc1)c1ccccc1)OCC (stereo partly drawn) [Compound 2, Benzyl ((2S)-1-(((2S)-1-(((E)-3-(diethoxyphosphoryl)-1-phenylallyl)amino)-1-oxo-3-phenylpropan-2-yl)amino)-1-oxo-3-(((3R,5aS,6R,8aS,9R,10S,12R,12 aR)-3,6,9-trimethyldeca hydro-12H-3,12-epoxy[1,2]dioxepino[4,3-i]isochromen-10-yl)oxy)propan-2-yl)carbamate]	–	–	in vitro toxicity on A549 human cells (in words) (A549 human cells): non-toxic; protection in treated group of mice (P. berghei; 12.5 mg/kg of body weight): 100%; Complete Protection - Mice with complete parasite clearance (P. berghei; [1]): 80% of treated mice; Survival after treatment (P. berghei; [1]): >60 days
CCOP(=O)(/C=C/[C@H](NC(=O)[C@H](CC(C)C)NC(=O)[C@H](CO[C@H]1O[C@@H]2OC3(C)CC[C@H]4[C@H](C)CC[C@@H]([C@H]1C)[C@@]24OO3)NC(=O)OCc1ccccc1)c1ccccc1)OCC (stereo in doubt) [Compound 3b, Benzyl ((S)-1-(((S)-1-(((S,E)-3-(diethoxyphosphoryl)-1-phenylallyl)amino)-4-methyl-1-oxopentan-2-yl)amino)-1-oxo-3-(((3R,5aS,6R,8aS,9R,10S,12R,12aR)-3,6,9-trimethyldeca hydro-12H-3,12-epoxy[1,2]dioxepino[4,3-i]isochromen-10-yl)oxy)propan-2-yl)carbamate]	–	7.78	–
CCOP(=O)(/C=C/C(NC(=O)[C@H](CO[C@H]1O[C@@H]2O[C@@]3(C)CC[C@H]4[C@H](C)CC[C@@H]([C@H]1C)[C@@]24OO3)NC(=O)OCc1ccccc1)c1ccccc1)OCC (mixture of isomers) [Compound 1, Benzyl ((2S)-1-(((E)-3-(diethoxyphosphoryl)-1-phenylallyl)amino)-1-oxo-3-(((3R,5aS,6R, 8aS,9R,10S,12R,12aR)-3,6,9-trimethyldecahydro-12H-3,12-epoxy[1,2]dioxepino[4,3-i]isochromen-10-yl)oxy)propan-2-yl)carbamate]	inactive	–	pIC50 (falcipain-2): < 4.00
CCOP(=O)(/C=C/[C@@H](NC(=O)[C@H](CC(C)C)NC(=O)[C@@H]1C[C@@H](O[C@H]2O[C@@H]3OC4(C)CC[C@H]5[C@H](C)CC[C@@H]([C@H]2C)[C@@]35OO4)CN1C(=O)OCc1ccccc1)c1ccccc1)OCC (stereo in doubt) [Compound 5a, Benzyl (2S,4R)-2-(((S)-1-(((R,E)-3-(diethoxyphosphoryl)-1-phenylallyl)amino)-4-methyl-1-oxopentan-2-yl)carbamoyl)-4-(((3R,5aS,6R,8aS,9R,10S,12R,12aR)-3,6,9-trimethyldeca hydro-12H-3,12-epoxy[1,2]dioxepino[4,3-i]isochromen-10-yl)oxy)pyrrolidine-1-carboxylate]	–	8.98	–
